Consider four compounds from US12582641B2, “Sulfur-containing compound based on glutarimide skeleton and application thereof” (SHANGHAITECH UNIVERSITY, priority 2019, dated 2026).

The subject of one test is ALCL cell line SR. The test is described as follows: Proliferation inhibition (IC50) in lymphoma cell line SR, cell viability assay. To be noted: 72 h, SR cells, WST reagent. It is filed as cell-based. An excerpt:
(§1) We tested the anti-proliferation activities of the compounds of the present invention in ALCL cell line SR and Mantle cell lymphoma Mino (which overexpressed IKZF1/3, but were not sensitive to immunomodulatory drugs) through a dose-dependent manner. […] The experiment was repeated more than three times.

Test [1] has as its system Mantle cell lymphoma Mino. The test is described as follows: Proliferation inhibition (IC50) in lymphoma cell line Mino, cell viability assay. It is filed as cell-based. To be noted: Mino cells; for IC50: 72 h, WST reagent.
Description: as §1

A further test deals with MM.1S cells. The test is described as follows: Proliferation inhibition (IC50) in MM.1S cells, cell viability assay. To be noted: Homo sapiens, MM1.S, 72 h, read-out: IC50 (nM), proliferation inhibitory activity of MM.1S cells (half inhibitory concentration).

`O=C1CCC(N2Cc3c(SCc4ccc(CCNC56CC7CC(CC(C7)C5)C6)cc4)cccc3C2=O)C(=O)N1` (stereo not drawn) [SIAIS287128, 3-(4-((4-(2-(adamantan-1-ylamino)ethyl)benzyl)thio)-1-oxoisoindolin-2-yl)piperidine-2,6-dione]: the IC50 is about 0.3 nM in the test with ALCL cell line SR (Homo sapiens, SR); 0.297 nM in the test on ALCL cell line SR; about 0.29 nM in test [1] (Homo sapiens, MINO); 0.289 nM in test [1]; 0.018 ± 0.005 nM with MM.1S cells. Further, in test [1] (versus pomalidomide IC50 48 nM), the “IC50 times lower than Pomalidomide” value is given as 165 times.

On to `O=C1CCC(N2Cc3c(SCCCCCCCNC45CC6CC(CC(C6)C4)C5)cccc3C2=O)C(=O)N1` (stereo not drawn) [SIAIS1220155, 3-(4-((7-((adamantan-1-yl)amino)heptyl)thio)-1-oxoisoindolin-2-yl)piperidine-2,6-dione], for which the IC50 was determined as 7.42 nM in the test with ALCL cell line SR (Homo sapiens, SR); 0.776 nM in test [1] (Homo sapiens, MINO); 0.02 nM in the test with MM.1S cells.

`O=C1CCC(N2Cc3c(SCc4ccc(CN5CCCCC5)cc4)cccc3C2=O)C(=O)N1` (stereo not drawn) [SIAIS1220165, 3-(1-oxo-4-((4-(piperidin-1-ylmethyl)benzyl)thio)isoindolin-2-yl)piperidine-2,6-dione]: the IC50 in the test on ALCL cell line SR (Homo sapiens, SR) turned out to be 1.89 nM; in test [1] (Homo sapiens, MINO) it was 5.83 nM; in the test with MM.1S cells, 0.09 nM.

With `Nc1cccc2c1C(=O)N(C1CCC(=O)NC1=O)C2=O` (stereo not drawn) [pomalidomide, reference compound], the IC50 in test [1] (Homo sapiens, MINO) came out at 48 nM; in test [1], 48 nM; in the test with MM.1S cells, 9.4 ± 1.3 nM.
